These are literature values, as cited in patent US4927638A, “Etoposide solutions” (Bristol-Myers Company, priority 1988, dated 1990).

For series [1] the following is noted: with water, ethanol, propylene glycol, isopropyl myristate, diethyl ether, acetone, corn oil, cottonseed oil, etc.
For series [2] the following is noted: oral (capsules or solution), of that found after intravenous administration; patients.
For series [3] the following is noted: background statement.

In the case of `CO[C@H]1CO[C@H]2[C@@H]1OC[C@H]2OC` [Dimethylisosorbide, dimethylisosorbide], in series [1], the miscibility entry is listed as “miscible”.
On to `COc1cc([C@@H]2c3cc4c(cc3[C@@H](O[C@@H]3O[C@@H]5CO[C@@H](C)O[C@H]5[C@H](O)[C@H]3O)[C@H]3COC(=O)[C@H]23)OCO4)cc(OC)c1O` [Etoposide, 4'-demethylepipodophyllotoxin-9-(4,6-O(R)-ethylidine-β-D-glucopyranoside)], for which, in series [2], the oral bioavailability entry was “about 50%”. Besides, the “solubility in water” value in series [3] is listed as “only sparingly soluble”.
